Laboratory results from ChEMBL document CHEMBL1129687, “Antitumor activity of S-(p-bromobenzyl)glutathione diesters in vitro: a structure-activity study” (J Med Chem, 1996).

Assay: The growth inhibitory concentration of compound was determined by logistic regression of viable cell number on Human leukemia 60 cells
Format: functional, 60 cell

Row | Structure (SMILES) | GC50
1 | CC(C)OC(=O)CNC(=O)C(CSCc1ccc(Br)cc1)NC(=O)CCC(N)C(=O)OC(C)C (configuration not stated) | 19.6 µM
2 | CCCCCOC(=O)CNC(=O)C(CSCc1ccc(Br)cc1)NC(=O)CCC(N)C(=O)OCCCCC (configuration not stated) | 22.2 µM
3 | CCCCOC(=O)CNC(=O)C(CSCc1ccc(Br)cc1)NC(=O)CCC(N)C(=O)OCCCC (configuration not stated) | 18.5 µM
4 | NC(CCC(=O)NC(CSCc1ccc(Br)cc1)C(=O)NCC(=O)OC1CCCCC1)C(=O)OC1CCCCC1 (configuration not stated) | 29.2 µM
5 | NC(CCC(=O)NC(CSCc1ccc(Br)cc1)C(=O)NCC(=O)OC1CCCC1)C(=O)OC1CCCC1 (configuration not stated) | 4.2 µM
6 | CCCOC(=O)CNC(=O)C(CSCc1ccc(Br)cc1)NC(=O)CCC(N)C(=O)OCCC (configuration not stated) | 7.8 µM
7 | CCOC(=O)CNC(=O)C(CSCc1ccc(Br)cc1)NC(=O)CCC(N)C(=O)OCC (configuration not stated) | 8.3 µM
